Experimental data: patent US20250051313A1, “PHTHALAZINE DERIVATIVES AS PYRUVATE KINASE MODULATORS” (Sitryx Therapeutics Limited, priority 2021, published 2025)
pEC50: −log10 of the molar value. Read-outs that look alike come from different tables or passages of the source.

Experiments:
recombinant human PKLR = recombinant human PKLR (Homo sapiens (Human), UniProt P30613); assay: Human PKLR activation assay (Kinase-Glo Plus luminescence); type: biochemical
Experimental: (§1) Measuring in vitro activation of recombinant human PKLR Compound activation of recombinant human PKLR pyruvate kinase activity was determined by biochemical assay. N-terminal His-tagged enzyme was sourced from R&D Systems and its substrates phosphoenolpyruvate (PEP) and ADP from Sigma-Aldrich and 2Bscientific Ltd, respectively. The Kinase-Glo® Plus luminescence assay was from Promega. All other reagents were from Sigma-Aldrich. Test Compounds were prepared as 10 mM DMSO stocks and dilution series prepared in DMSO for direct dilution into Assay Buffer comprising 50 mM imidazole, 50 mM KCl, 7 mM MgCl2, 0.01% Tween20, 0.05% BSA (pH 7.2).
Human PKLR was diluted into Assay Buffer to a final concentration of 5 pM. […]
(§2) After 60 minutes' incubation on an orbital shaker (300 rpm, 26° C.), enzyme activity was quantified by the luminescent detection of generated ATP. Kinase-Glo® Plus reagent was added to each well and the plates incubated for a further 15 minutes on an orbital shaker in the dark (300 rpm, 26° C.) before luminescence measurement on a plate reader (PHERAstar® FSX, BMG Labtech).
(§3) Percentage activation was calculated by normalising […] signals to plate LOW (DMSO vehicle) and HIGH (5 μM TEPP-46) controls. EC50 and Emax values were determined from 4-parameter logistic fits of compound concentration-response curves.

recombinant human PKM2 = recombinant human PKM2 (Homo sapiens (Human), UniProt P14618); assay: Human PKM2 activation assay (Kinase-Glo Plus luminescence); type: biochemical; details: for Emax: read-out: hPKM2 Emax
Experimental: as §1, with “PKM2” for “PKLR”, “hPKM2” for “enzyme”
Human PKM2 was diluted into Assay Buffer comprising 50 mM imidazole, 50 mM KCl, 7 mM MgCl2, 0.01% Tween20, 0.05% BSA (pH 7.2) to a final concentration of 5 pM. Enzyme-Assay Buffer mix was dispensed into a 384-well shallow-well white-walled plate (PerkinElmer) and Test Compounds added by acoustic dispense (Echo®, Labcyte Inc.).
as §2, §3

[1] = target: pyruvate kinase (PK) activity in human CD4+ T cell lysates (Homo sapiens, UniProt P14618); assay: CD4+ T cell pyruvate kinase assay; type: cell-based; details: human CD4+ T cells incubated with compound 20 minutes, then lysed; ΔAbsorbance OD570
Experimental: Compound activation of pyruvate kinase in human CD4+ T cell lysates was determined by biochemical assay. Primary CD4+ T cells were used rather than cancer cell lines to improve the disease relevance of the assay. The PK assay was sourced from Abcam. All other reagents were sourced from ThermoFisher. Test compounds were prepared as 10 mM DMSO stocks and dilution series prepared in DMSO for addition to intact CD4+ T cells cultured in RPMI media containing 10% FBS.
Human CD4+ T cells were incubated with compound for 20 minutes and then washed twice in 1×PBS before resuspension in Abcam PK lysis buffer to prepare cell lysates. 10 μl PK assay Reaction Mix was added per well, including OXIRED™ PROBE. The plates were read using a BMG Labtech Pherastar plate reader at OD570 nm in kinetic mode for […] (25 cycles of 2 minutes) at 25° C., protecting from light.
Plates were blank-subtracted and ΔAbsorbance calculated by subtracting the first plate read within the linear range from the plate read at the timepoint of interest. PK activity is expressed as ΔAbsorbance and plotted against log [Compound].

Chain of recombinant human PKM2 (P14618 whole entry): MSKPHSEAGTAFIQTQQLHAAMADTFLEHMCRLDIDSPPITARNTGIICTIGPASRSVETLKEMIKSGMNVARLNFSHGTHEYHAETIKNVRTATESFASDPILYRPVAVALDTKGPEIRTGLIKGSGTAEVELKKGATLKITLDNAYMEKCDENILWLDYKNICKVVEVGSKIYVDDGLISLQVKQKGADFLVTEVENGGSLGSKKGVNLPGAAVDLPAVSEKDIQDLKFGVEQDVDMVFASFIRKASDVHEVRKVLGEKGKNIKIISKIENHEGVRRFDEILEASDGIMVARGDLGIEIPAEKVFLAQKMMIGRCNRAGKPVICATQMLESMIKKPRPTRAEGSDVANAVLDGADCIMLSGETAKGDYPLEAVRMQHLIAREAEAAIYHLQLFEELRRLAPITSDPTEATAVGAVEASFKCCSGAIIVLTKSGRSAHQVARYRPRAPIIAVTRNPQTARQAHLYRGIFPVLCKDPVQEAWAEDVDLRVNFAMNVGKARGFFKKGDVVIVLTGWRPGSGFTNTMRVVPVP
Chain of recombinant human PKLR (P30613 whole entry): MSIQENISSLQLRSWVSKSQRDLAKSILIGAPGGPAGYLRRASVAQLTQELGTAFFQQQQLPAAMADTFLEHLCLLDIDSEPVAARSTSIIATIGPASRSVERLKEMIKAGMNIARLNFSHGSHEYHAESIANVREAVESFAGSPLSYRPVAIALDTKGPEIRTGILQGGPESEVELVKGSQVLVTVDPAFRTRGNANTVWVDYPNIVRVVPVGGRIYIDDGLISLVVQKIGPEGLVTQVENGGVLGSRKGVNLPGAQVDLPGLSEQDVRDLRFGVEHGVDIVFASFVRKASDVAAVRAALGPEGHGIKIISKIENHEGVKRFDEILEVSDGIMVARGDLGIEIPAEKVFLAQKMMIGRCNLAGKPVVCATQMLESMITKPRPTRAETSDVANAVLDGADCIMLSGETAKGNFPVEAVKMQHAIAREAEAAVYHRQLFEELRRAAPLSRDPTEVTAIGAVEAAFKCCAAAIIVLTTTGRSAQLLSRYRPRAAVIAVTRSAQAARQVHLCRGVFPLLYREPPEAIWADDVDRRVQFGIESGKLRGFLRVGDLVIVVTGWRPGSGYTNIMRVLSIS
Chain of pyruvate kinase (PK) activity in human CD4+ T cell lysates (P14618 2-531 limits assumed): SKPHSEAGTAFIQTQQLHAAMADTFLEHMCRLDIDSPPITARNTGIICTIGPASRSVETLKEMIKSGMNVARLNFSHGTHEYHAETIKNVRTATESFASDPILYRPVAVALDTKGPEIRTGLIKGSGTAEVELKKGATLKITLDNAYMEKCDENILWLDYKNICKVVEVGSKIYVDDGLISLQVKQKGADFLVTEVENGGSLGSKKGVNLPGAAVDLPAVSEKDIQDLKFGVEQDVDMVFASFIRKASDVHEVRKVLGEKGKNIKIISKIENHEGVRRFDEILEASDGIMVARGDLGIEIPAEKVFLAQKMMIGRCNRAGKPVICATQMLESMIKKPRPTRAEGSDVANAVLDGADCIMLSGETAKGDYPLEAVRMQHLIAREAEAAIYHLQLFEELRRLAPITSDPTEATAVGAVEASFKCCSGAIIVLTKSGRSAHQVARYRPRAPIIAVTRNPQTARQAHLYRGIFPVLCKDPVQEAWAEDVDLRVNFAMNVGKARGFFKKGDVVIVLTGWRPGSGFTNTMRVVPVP

Emax (recombinant human PKLR; percentage activation normalised to DMSO (LOW) and 5 μM TEPP-46 (HIGH), read-out: hPKLR Emax): 134%
pEC50 (recombinant human PKLR; recombinant His-tagged hPKLR, activation, 4-parameter logistic fit): 7.99
Emax (recombinant human PKM2; data from repeated experiments, normalised to DMSO and 5 μM TEPP-46): 107%
pEC50 (recombinant human PKM2; data from repeated experiments, read-out: hPKM2 EC50): 6.97
Emax (recombinant human PKM2; percentage activation normalised to DMSO (LOW) and 5 μM TEPP-46 (HIGH)): 114%
pEC50 (recombinant human PKM2; recombinant His-tagged hPKM2, activation, 4-parameter logistic fit): 7.19
pEC50 [1]: 7.08
Structure (SMILES): O=c1c2ccc(S(=O)(=O)c3cn[nH]c3)cc2cnn1Cc1ccn(C2CC2)n1 [Example 1, 6-((1H-pyrazol-4-yl)sulfonyl)-2-((1-cyclopropyl-1H-pyrazol-3-yl)methyl) phthalazin-1(2H)-one]
